Measured values as given in ChEMBL document CHEMBL1139701, “A bioisosteric approach to the discovery of indole carbinol androgen receptor ligands” (Bioorg Med Chem Lett, 2006).

Target: T1, Androgen receptor (Rattus norvegicus, UniProt P15207)
T1 sequence (P15207 whole entry): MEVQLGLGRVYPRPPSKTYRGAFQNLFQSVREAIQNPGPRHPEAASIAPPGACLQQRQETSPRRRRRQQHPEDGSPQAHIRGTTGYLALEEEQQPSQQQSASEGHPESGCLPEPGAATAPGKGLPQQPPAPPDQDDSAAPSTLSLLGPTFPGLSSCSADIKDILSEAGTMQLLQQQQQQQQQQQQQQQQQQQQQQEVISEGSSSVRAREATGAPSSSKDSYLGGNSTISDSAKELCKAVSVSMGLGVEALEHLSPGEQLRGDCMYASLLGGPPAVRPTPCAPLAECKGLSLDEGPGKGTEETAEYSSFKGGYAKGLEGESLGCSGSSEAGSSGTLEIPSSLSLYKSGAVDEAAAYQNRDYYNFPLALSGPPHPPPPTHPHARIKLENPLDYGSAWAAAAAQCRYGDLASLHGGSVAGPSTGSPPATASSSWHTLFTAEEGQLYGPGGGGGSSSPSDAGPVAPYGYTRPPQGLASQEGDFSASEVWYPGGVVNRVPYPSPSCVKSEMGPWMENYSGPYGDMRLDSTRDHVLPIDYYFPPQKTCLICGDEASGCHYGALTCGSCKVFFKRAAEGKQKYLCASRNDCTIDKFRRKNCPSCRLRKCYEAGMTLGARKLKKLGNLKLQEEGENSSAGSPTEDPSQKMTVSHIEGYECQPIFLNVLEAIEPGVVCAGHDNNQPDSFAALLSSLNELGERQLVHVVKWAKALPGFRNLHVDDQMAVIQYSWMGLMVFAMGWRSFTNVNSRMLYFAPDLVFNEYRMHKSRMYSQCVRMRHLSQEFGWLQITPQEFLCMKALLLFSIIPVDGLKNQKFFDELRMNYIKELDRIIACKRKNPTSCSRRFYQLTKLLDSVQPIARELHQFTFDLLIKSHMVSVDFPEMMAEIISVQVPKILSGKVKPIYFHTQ
Assay: Displacement of [3H]R1881 from rat androgen receptor

Question: For CC(O)(COC(=O)c1ccccc1C(F)(F)F)c1cc2cc(NC(=O)C(F)(F)F)c(C(F)(F)F)cc2[nH]1 (centres undefined), which IC50 is on record?
Answer: The IC50 was 150 nM.

Question: For CN(C)c1ccc(C(=O)OCC(C)(O)c2cc3cc([N+](=O)[O-])c(C(F)(F)F)cc3[nH]2)cc1 (centres undefined), which IC50 is on record?
Answer: Its IC50 is 2600 nM.

Question: How did the IC50 turn out when CC(O)(COC(=O)c1ccc(F)cc1)c1cc2cc(C#N)c(C(F)(F)F)cc2[nH]1 (centres undefined) was run?
Answer: The IC50 was 1200 nM.

Question: For CC(O)(COC(=O)c1ccccc1)c1cc2cc(C#N)c(C(F)(F)F)cc2[nH]1 (centres undefined), which IC50 is on record?
Answer: Its IC50 is 480 nM.

Question: CC(C)(C)c1ccc(C(=O)OCC(C)(O)c2cc3cc([N+](=O)[O-])c(C(F)(F)F)cc3[nH]2)cc1 (centres undefined) was tested. Which IC50 did it give?
Answer: The IC50 was 3600 nM.

Question: How did the IC50 turn out when CC(O)(CSc1ccc(Cl)cc1)c1cc2cc(Cl)c(C(F)(F)F)cc2[nH]1 (centres undefined) was run?
Answer: Its IC50 is 180 nM.

Question: CC(O)(CSc1ccccc1)c1cc2cc(Cl)c(C(F)(F)F)cc2[nH]1 (centres undefined) was tested. Which IC50 did it give?
Answer: The IC50 was 220 nM.

Question: How did the IC50 turn out when Cc1ccc(C(=O)OCC(C)(O)c2cc3cc([N+](=O)[O-])c(C(F)(F)F)cc3[nH]2)cc1 (centres undefined) was run?
Answer: The IC50 was 3000 nM.

Question: With CC(O)(CSc1ccc(Cl)c(Cl)c1)c1cc2cc([N+](=O)[O-])c(C(F)(F)F)cc2[nH]1 (centres undefined) as the compound, how does the IC50 read?
Answer: Its IC50 is 1000 nM.

Question: For COc1ccc(C(=O)OCC(C)(O)c2cc3cc([N+](=O)[O-])c(C(F)(F)F)cc3[nH]2)cc1 (centres undefined), which IC50 is on record?
Answer: The IC50 was 6400 nM.

Question: How did the IC50 turn out when CC(O)(COC(=O)c1ccc([N+](=O)[O-])cc1)c1cc2cc([N+](=O)[O-])c(C(F)(F)F)cc2[nH]1 (centres undefined) was run?
Answer: Its IC50 is 1600 nM.

Question: For CC(O)(CS(=O)(=O)c1ccc(F)cc1)c1cc2cc(C#N)c(C(F)(F)F)cc2[nH]1 (centres undefined), which IC50 is on record?
Answer: Its IC50 is greater than 6900 nM.

Target: T2, Androgen receptor (Rattus norvegicus) (UniProt P15207)
T2 sequence (whole entry): T1 sequence (P15207 whole entry)
Assay: Displacement of [3H]R1881 from rat androgen receptor at 30 uM relative to control

Question: With COC(=O)c1ccc2[nH]c(C(C)(O)CSc3ccc(Cl)cc3)cc2c1 (centres undefined) as the compound, how does the inhibition read?
Answer: The inhibition was less than 50%.

Question: CC(O)(CSc1ccc(Cl)cc1)c1cc2ccccc2[nH]1 (centres undefined) was tested. Which inhibition did it give?
Answer: The inhibition was less than 50%.
